Measurements from patent US20160207930A1 (LEO PHARMA A/S, priority 2013, published 2016).

Columns and labels:
[1] = Hepatic intrinsic clearance following incubation in human liver microsomes; format: in vitro ADME; conditions: 0.5 μM test compound, NADPH, 0-30 min, scaled to g liver
Outline: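 Compound incubated at 37° C with microsomes diluted to 0.55 mg/mL protein in 50 mM potassium phosphate pH 7.4 plus NADPH regenerating system; sampled 0–30 min and analysed by LC-MS/MS. Clint from ln(% parent remaining) slope, scaled to mL/min/g liver; Eh derived assuming 25.7 g/kg liver, 20.7 mL/min/kg blood flow.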

NK1 Receptor = target: T1, NK1 Receptor (Homo sapiens, UniProt P25103); assay: NK1 receptor mediated intracellular [Ca2+] mobilization in U251 MG cells using FLIPR; format: cell-based; conditions: antagonism of Substance P (EC80), Fluo-4, read-out: NK1R mediated intracellular [Ca^2+] mobilization IC 50
T1 construct: Measurement of NK1 Receptor Mediated Intracellular [Ca^2+]; Mobilization in U251 MG Cells Using FLIPR; endogenous in cells; host or cells: U251 MG cells
T1 sequence (P25103 whole entry): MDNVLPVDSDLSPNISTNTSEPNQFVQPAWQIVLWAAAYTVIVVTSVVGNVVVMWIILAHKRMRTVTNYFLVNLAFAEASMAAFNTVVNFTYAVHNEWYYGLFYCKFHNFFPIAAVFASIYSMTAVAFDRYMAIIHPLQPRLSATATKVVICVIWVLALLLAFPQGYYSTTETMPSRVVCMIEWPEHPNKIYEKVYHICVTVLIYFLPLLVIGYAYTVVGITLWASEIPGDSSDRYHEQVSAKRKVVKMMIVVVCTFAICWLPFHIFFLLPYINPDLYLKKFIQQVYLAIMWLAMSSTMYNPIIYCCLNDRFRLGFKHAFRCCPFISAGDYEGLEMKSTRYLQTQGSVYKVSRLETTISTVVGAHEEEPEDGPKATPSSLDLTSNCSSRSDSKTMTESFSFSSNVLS
Outline: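 Fluo-4-loaded U251 MG cells preincubated with compound (0.5% DMSO final), checked 5 min for agonism, then 10 min at 37 °C before Substance P at EC80. Peak fluorescence change on FLIPR, normalized to 100 nM Aprepitant maximal response; IC50 by four-parameter logistic fit, reported as pIC50.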

Row | Compound | Human in vitro Clint [1] | IC50 (NK1 Receptor)
1 | Cc1cc(F)ccc1C1C2CC(CCO)(CCO)C(=O)N2CCN1C(=O)N(C)[C@H](C)c1cc(Cl)cc(C(F)(F)F)c1 (single isomer, unassigned) [Compound 10] | >200 mL/min/g | 0.063 nM
2 | Cc1ccc([C@H]2[C@@H]3CC(CCO)(CCO)C(=O)N3CCN2C(=O)N(C)[C@H](C)c2cc(C(C)C)cc(C(F)(F)F)c2)c(C)c1 [Compound 35, (1S,8aS)-1-(2,4-dimethylphenyl)-7,7-bis(2-hydroxyethyl)-N—((R)-1-(3-isopropyl-5-(trifluoromethyl)phenyl)ethyl)-N-methyl-6-oxohexahydropyrrolo[1,2-a]pyrazine-2(1H)-carboxamide] | >200 mL/min/g | 0.141 nM
3 | CCc1cc([C@@H](C)N(C)C(=O)N2CCN3C(=O)CC[C@H]3[C@@H]2c2ccc(O)cc2C)cc(C(F)(F)F)c1 [Compound 28, (1S,8aS)—N—((R)-1-(3-ethyl-5-(trifluoromethyl)phenyl)ethyl)-1-(4-hydroxy-2-methylphenyl)-N-methyl-6-oxohexahydropyrrolo[1,2-a]pyrazine-2(1H)-carboxamide] | >200 mL/min/g | 0.11 nM
4 | CCc1ccccc1[C@H]1[C@@H]2CCC(=O)N2CCN1C(=O)N(C)[C@H](C)c1cc(C(F)(F)F)cc(C(F)(F)F)c1 [Compound 68, N—((R)-1-(3,5-bis(trifluoromethyl)phenyl)ethyl)-1-(2-ethylphenyl)-N-methyl-6-oxohexahydropyrrolo[1,2-a]pyrazine-2(1H)-carboxamide] | >200 mL/min/g | 0.26 nM
5 | CCc1cc([C@@H](C)N(C)C(=O)N2CCN3C(=O)C(CCO)(CCO)CC3C2c2ccc(OC)cc2C)cc(C(F)(F)F)c1 (stereo partly drawn) [Compound 16] | >200 mL/min/g | 0.243 nM
6 | CCc1cc([C@@H](C)N(C)C(=O)N2CCN3C(=O)CC[C@H]3[C@@H]2c2cccc(C)c2C)cc(C(F)(F)F)c1 [Compound 41, (1S,8aS)-1-(2,3-dimethylphenyl)-N—((R)-1-(3-ethyl-5-(trifluoromethyl)phenyl)ethyl)-N-methyl-6-oxo-hexahydropyrrolo[1,2-a]pyrazine-2(1H)-carboxamide] | >200 mL/min/g | 0.111 nM
7 | Cc1cc([C@@H](C)N(C)C(=O)N2CCN3C(=O)C(CCO)(CCO)C[C@H]3[C@@H]2c2c[nH]nc2C)cc(C(F)(F)F)c1 [Compound 63, (1S,8aS)-7,7-bis(2-hydroxyethyl)-N-methyl-1-(3-methyl-1H-pyrazol-4-yl)-N—((R)-1-(3-methyl-5-(trifluoromethyl)phenyl)ethyl)-6-oxo-hexahydropyrrolo[1,2-a]pyrazine-2(1H)-carboxamide] | 51 mL/min/g | 9.29 nM
8 | Cc1cccc([C@H]2[C@@H]3CCC(=O)N3CCN2C(=O)N(C)[C@H](C)c2cc(C(F)(F)F)cc(C(F)(F)F)c2)c1C [Compound 40, (1S,8aS)—N—((R)-1-(3,5-bis(trifluoromethyl)phenyl)ethyl)-1-(2,3-dimethylphenyl)-N-methyl-6-oxo-hexahydropyrrolo[1,2-a]pyrazine-2(1H)-carboxamide] | >200 mL/min/g | 0.197 nM
9 | Cc1ncc([C@H]2[C@@H]3CCC(=O)N3CCN2C(=O)N(C)[C@H](C)c2cc(C(F)(F)F)cc(C(F)(F)F)c2)s1 [Compound 58, (1R,8aS)—N—((R)-1-(3,5-bis(trifluoromethyl)phenyl)ethyl)-N-methyl-1-(2-methylthiazol-5-yl)-6-oxohexahydropyrrolo[1,2-a]pyrazine-2(1H)-carboxamide] | >200 mL/min/g | 28.6 nM
10 | Cc1ccc(C2C3CC(CCO)(CCO)C(=O)N3CCN2C(=O)N(C)[C@H](C)c2cc(C(F)(F)F)cc(C(F)(F)F)c2)c(C)c1 (single isomer, unassigned) [Compound 7] | >200 mL/min/g | 0.08 nM
11 | Cc1ccc([C@@H]2[C@H]3CCC(=O)N3CCN2C(=O)N(C)Cc2cc(C(F)(F)F)cc(C(F)(F)F)c2)c(C)c1 (racemic) [Compound 3, N-(3,5-bis(trifluoromethyl)benzyl)-1-(2,4-dimethylphenyl)-N-methyl-6-oxohexahydropyrrolo[1,2-a]pyrazine-2(1H)-carboxamide] | >200 mL/min/g | 0.297 nM
12 | Cc1cnccc1[C@H]1[C@@H]2CCC(=O)N2CCN1C(=O)N(C)[C@H](C)c1cc(C(F)(F)F)cc(C(F)(F)F)c1 [Compound 46, (1S,8aS)—N—((R)-1-(3,5-bis(trifluoromethyl)phenyl)ethyl)-N-methyl-1-(3-methylpyridin-4-yl)-6-oxohexahydropyrrolo[1,2-a]pyrazine-2(1H)-carboxamide] | <10 mL/min/g | 0.167 nM
13 | Cc1cc([C@@H](C)N(C)C(=O)N2CCN3C(=O)CCC3C2c2ccc(C)cc2C)cc(C(F)(F)F)c1 (single isomer, unassigned) [Compound 5] | >200 mL/min/g | 0.437 nM
14 | Cc1cc(OCc2ccccc2)ccc1[C@H]1[C@@H]2CCC(=O)N2CCN1C(=O)N(C)[C@H](C)c1cc(C(F)(F)F)cc(C(F)(F)F)c1 [Compound 26, (1S,8aS)-1-(4-(benzyloxy)-2-methylphenyl)-N—((R)-1-(3,5-bis(trifluoromethyl)phenyl)ethyl)-N-methyl-6-oxohexahydropyrrolo[1,2-a]pyrazine-2(1H)-carboxamide] | >200 mL/min/g | 7.36 nM
15 | C[C@H](c1cc(C(F)(F)F)cc(C(F)(F)F)c1)N(C)C(=O)N1CCN2C(=O)CC[C@H]2[C@@H]1c1ccccc1CO [Compound 74, (1S,8aS)—N—((R)-1-(3,5-bis(trifluoromethyl)phenyl)ethyl)-1-(2-(hydroxymethyl)phenyl)-N-methyl-6-oxohexahydropyrrolo[1,2-a]pyrazine-2(1H)-carboxamide] | >200 mL/min/g | 0.11 nM
16 | Cc1cc([C@@H](C)N(C)C(=O)N2CCN3C(=O)C(CCO)(CCO)CC3C2c2ccc(F)cc2C)cc(C(F)(F)F)c1 (single isomer, unassigned) [Compound 12] | >200 mL/min/g | 0.622 nM
17 | Cc1cccnc1[C@@H]1[C@@H]2CCC(=O)N2CCN1C(=O)N(C)[C@H](C)c1cc(C(F)(F)F)cc(C(F)(F)F)c1 [Compound 44, (1S,8aS)—N—((R)-1-(3,5-bis(trifluoromethyl)phenyl)ethyl)-N-methyl-1-(3-methylpyridin-2-yl)-6-oxo-hexahydropyrrolo[1,2-a]pyrazine-2(1H)-carboxamide] | >200 mL/min/g | 100 nM
18 | Cc1ccncc1[C@H]1[C@@H]2CCC(=O)N2CCN1C(=O)N(C)[C@H](C)c1cc(C(F)(F)F)cc(C(F)(F)F)c1 [Compound 45, (1S,8aS)—N—((R)-1-(3,5-bis(trifluoromethyl)phenyl)ethyl)-N-methyl-1-(4-methylpyridin-3-yl)-6-oxo-hexahydropyrrolo[1,2-a]pyrazine-2(1H)-carboxamide] | <10 mL/min/g | 0.772 nM
19 | Cc1cccc(F)c1[C@H]1[C@@H]2CCC(=O)N2CCN1C(=O)N(C)[C@H](C)c1cc(C(F)(F)F)cc(C(F)(F)F)c1 [Compound 82, (1S,8aS)—N—((R)-1-(3,5-bis(trifluoromethyl)phenyl)ethyl)-1-(2-fluoro-6-methylphenyl)-N-methyl-6-oxohexahydropyrrolo[1,2-a]pyrazine-2(1H)-carboxamide] | >200 mL/min/g | 0.13 nM
20 | Cc1cc(F)ccc1C1C2CC(CCO)(CCO)C(=O)N2CCN1C(=O)N(C)[C@H](C)c1cc(Cl)cc(C(F)(F)F)c1 (single isomer, unassigned) [Compound 11] | >200 mL/min/g | 0.613 nM
21 | Cc1cscc1[C@H]1[C@@H]2CCC(=O)N2CCN1C(=O)N(C)[C@H](C)c1cc(C(F)(F)F)cc(C(F)(F)F)c1 [Compound 48] | >200 mL/min/g | 0.249 nM
22 | CCc1cc([C@@H](C)N(C)C(=O)N2CCN3C(=O)C(CCO)(CCO)C[C@H]3[C@@H]2c2ccc(F)cc2C)cc(C(F)(F)F)c1 [Compound 24, (1S,8aS)—N—((R)-1-(3-ethyl-5-(trifluoromethyl)phenyl)ethyl)-1-(4-fluoro-2-methylphenyl)-7,7-bis(2-hydroxyethyl)-N-methyl-6-oxohexahydropyrrolo[1,2-a]pyrazine-2(1H)-carboxamide] | >200 mL/min/g | 0.08 nM
23 | Cc1ccc([C@@H]2[C@H]3CC(CCO)(CCO)C(=O)N3CCN2C(=O)N(C)Cc2cc(C(F)(F)F)cc(C(F)(F)F)c2)c(C)c1 (racemic) [Compound 9, N-(3,5-bis(trifluoromethyl)benzyl)-1-(2,4-dimethylphenyl)-7,7-bis(2-hydroxyethyl)-N-methyl-6-oxohexahydropyrrolo[1,2-a]pyrazine-2(1H)-carboxamide] | >200 mL/min/g | 0.18 nM
24 | Cc1cc(O)ccc1[C@H]1[C@@H]2CCC(=O)N2CCN1C(=O)N(C)[C@H](C)c1cc(C(F)(F)F)cc(C(F)(F)F)c1 [Compound 27, (1S,8aS)—N—((R)-1-(3,5-bis(trifluoromethyl)phenyl)ethyl)-1-(4-hydroxy-2-methylphenyl)-N-methyl-6-oxohexahydropyrrolo[1,2-a]pyrazine-2(1H)-carboxamide] | >200 mL/min/g | 0.064 nM
